Reference: the supplement of paper PMC10307832

Tests used:
Tosedostat + Dasatinib = compound: CC(C)C[C@@H](C(=O)N[C@H](C(=O)OC1CCCC1)c1ccccc1)[C@H](O)C(=O)NO [Tosedostat] + Cc1nc(Nc2ncc(C(=O)Nc3c(C)cccc3Cl)s2)cc(N2CCN(CCO)CC2)n1 [Dasatinib] (partner 0.075 µM); experiment: relative viability (nuclei count vs DMSO), 5 days (fraction); higher = more cells survive
Method in brief: (§1)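 Relative viability divides the nuclei count in treated wells by that in vehicle wells. Lung cancer cell lines were seeded in 1536-well plates, dosed by pin tool the next day, and fixed and stained after 5 days in one step with final 0.05% Triton X-100, 1% formaldehyde and 1 ug/ml Hoechst. Dosing was a single drug or a fixed anchor-drug dose plus five library-drug doses (not always all listed) in √10 steps, and values are medians of duplicate plates imaged at 4×.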

Tosedostat + Luminespib = compound: CC(C)C[C@@H](C(=O)N[C@H](C(=O)OC1CCCC1)c1ccccc1)[C@H](O)C(=O)NO [Tosedostat] + CCNC(=O)c1noc(-c2cc(C(C)C)c(O)cc2O)c1-c1ccc(CN2CCOCC2)cc1 [Luminespib] (partner 0.01 µM); experiment: as above
Method in brief: as §1

For LCLC-103H, the relative viability (Tosedostat + Dasatinib; first compound 0.02 µM) was 0.49, the relative viability (Tosedostat + Dasatinib; first compound 0.06325 µM) was 0.523 and the relative viability (Tosedostat + Dasatinib; first compound 0.2 µM) was 0.503. It also gave a relative viability (Tosedostat + Dasatinib; first compound 0.6325 µM) of 0.366, a relative viability (Tosedostat + Dasatinib; first compound 2 µM) of 0.341 and a relative viability (Tosedostat + Luminespib; first compound 0.02 µM) of 1.04. It also gave a relative viability (Tosedostat + Luminespib; first compound 0.06325 µM) of 0.932, a relative viability (Tosedostat + Luminespib; first compound 0.2 µM) of 1.04 and a relative viability (Tosedostat + Luminespib; first compound 0.6325 µM) of 0.998. The relative viability (Tosedostat + Luminespib; first compound 2 µM) was 0.9.
For LCLC-97TM1, the relative viability (Tosedostat + Dasatinib; first compound 0.02 µM) was 0.901, the relative viability (Tosedostat + Dasatinib; first compound 0.06325 µM) was 0.988 and the relative viability (Tosedostat + Dasatinib; first compound 0.2 µM) was 0.811. The relative viability (Tosedostat + Dasatinib; first compound 0.6325 µM) was 0.819, the relative viability (Tosedostat + Dasatinib; first compound 2 µM) was 0.915 and the relative viability (Tosedostat + Luminespib; first compound 0.02 µM) was 0.775. The relative viability (Tosedostat + Luminespib; first compound 0.06325 µM) was 0.81, the relative viability (Tosedostat + Luminespib; first compound 0.2 µM) was 0.688 and the relative viability (Tosedostat + Luminespib; first compound 0.6325 µM) was 0.644. It also gave a relative viability (Tosedostat + Luminespib; first compound 2 µM) of 0.652.
Cell Line SK-LU-1 has a relative viability (Tosedostat + Dasatinib; first compound 0.02 µM) of 0.184, a relative viability (Tosedostat + Dasatinib; first compound 0.06325 µM) of 0.191 and a relative viability (Tosedostat + Dasatinib; first compound 0.2 µM) of 0.219. For the same cell line, the relative viability (Tosedostat + Dasatinib; first compound 0.6325 µM) was 0.197, the relative viability (Tosedostat + Dasatinib; first compound 2 µM) was 0.203 and the relative viability (Tosedostat + Luminespib; first compound 0.02 µM) was 0.213. The relative viability (Tosedostat + Luminespib; first compound 0.06325 µM) was 0.211, the relative viability (Tosedostat + Luminespib; first compound 0.2 µM) was 0.217 and the relative viability (Tosedostat + Luminespib; first compound 0.6325 µM) was 0.2. The relative viability (Tosedostat + Luminespib; first compound 2 µM) was 0.188.
For NCI-H1563, the relative viability (Tosedostat + Dasatinib; first compound 0.02 µM) was 0.507, the relative viability (Tosedostat + Dasatinib; first compound 0.06325 µM) was 0.528 and the relative viability (Tosedostat + Dasatinib; first compound 0.2 µM) was 0.459. The relative viability (Tosedostat + Dasatinib; first compound 0.6325 µM) was 0.512, the relative viability (Tosedostat + Dasatinib; first compound 2 µM) was 0.442 and the relative viability (Tosedostat + Luminespib; first compound 0.02 µM) was 0.575. It also gave a relative viability (Tosedostat + Luminespib; first compound 0.06325 µM) of 0.52, a relative viability (Tosedostat + Luminespib; first compound 0.2 µM) of 0.5 and a relative viability (Tosedostat + Luminespib; first compound 0.6325 µM) of 0.648. It also gave a relative viability (Tosedostat + Luminespib; first compound 2 µM) of 0.492.
In the case of HOP-62, the relative viability (Tosedostat + Dasatinib; first compound 0.02 µM) is reported as 0.678, the relative viability (Tosedostat + Dasatinib; first compound 0.06325 µM) is reported as 0.628 and the relative viability (Tosedostat + Dasatinib; first compound 0.2 µM) is reported as 0.665. The relative viability (Tosedostat + Dasatinib; first compound 0.6325 µM) was 0.685, the relative viability (Tosedostat + Dasatinib; first compound 2 µM) was 0.57 and the relative viability (Tosedostat + Luminespib; first compound 0.02 µM) was 1.01. The relative viability (Tosedostat + Luminespib; first compound 0.06325 µM) was 0.894, the relative viability (Tosedostat + Luminespib; first compound 0.2 µM) was 0.925 and the relative viability (Tosedostat + Luminespib; first compound 0.6325 µM) was 0.919. The relative viability (Tosedostat + Luminespib; first compound 2 µM) was 0.817.
With NCI-H23 the relative viability (Tosedostat + Dasatinib; first compound 0.02 µM) was 0.785, the relative viability (Tosedostat + Dasatinib; first compound 0.06325 µM) was 0.817 and the relative viability (Tosedostat + Dasatinib; first compound 0.2 µM) was 0.741. It also gave a relative viability (Tosedostat + Dasatinib; first compound 0.6325 µM) of 0.662, a relative viability (Tosedostat + Dasatinib; first compound 2 µM) of 0.455 and a relative viability (Tosedostat + Luminespib; first compound 0.02 µM) of 0.233. It also gave a relative viability (Tosedostat + Luminespib; first compound 0.06325 µM) of 0.203, a relative viability (Tosedostat + Luminespib; first compound 0.2 µM) of 0.22 and a relative viability (Tosedostat + Luminespib; first compound 0.6325 µM) of 0.237. For the same cell line, the relative viability (Tosedostat + Luminespib; first compound 2 µM) was 0.207.
